clearance, Vdss and Vd data for 9 compounds are collected here from ChEMBL document CHEMBL1614629, “Extrapolation of human pharmacokinetic parameters from rat, dog, and monkey data: Molecular properties associated with extrapolative success or failure” (J Pharm Sci, 2005).

Series [1] can be described thus: Clearance in rat after iv administration. The format is ADME, organism-based. To be noted: in vivo.
Series [2] in a line: Volume of distribution at steady state in rat after iv administration. The series is classed as ADME, organism-based. To be noted: in vivo.
A short description of series [3]: Clearance in dog after iv administration. The series is classed as ADME, organism-based, Canis lupus familiaris. To be noted: in vivo.
Series [4] in a line: Volume of distribution at steady state in dog after iv administration. The format is ADME, organism-based, Canis lupus familiaris. To be noted: in vivo, read-out: Vdss.
Series [5] is described as follows: Clearance in monkey after iv administration. The series is classed as ADME, organism-based. To be noted: macaca, in vivo.
Series [6] in a line: Volume of distribution at steady state in monkey after iv administration. The series is classed as ADME, organism-based. To be noted: macaca, in vivo, read-out: Vdss.
Series [7] in a line: Clearance in human after iv administration. The series is classed as ADME, organism-based. To be noted: in vivo.
Series [8] in a line: Volume of distribution at steady state in human after iv administration. The series is classed as ADME, organism-based. To be noted: in vivo; for Vd: read-out: Vdss.

For `C[C@@H](O)[C@H]1C(=O)N2C(C(=O)[O-])=C(SC3Cn4cnc[n+]4C3)[C@H](C)[C@H]12` (some centres not stated) [BIAPENEM], the clearance in series [1] was 16 mL/min/kg; in series [3], 6.2 mL/min/kg; in series [5], 5.3 mL/min/kg; in series [7] it was 2.7 mL/min/kg. In addition, the Vdss in series [2] came out at 0.24 L/kg. Besides, the Vd in series [4] turned out to be 0.28 L/kg; in series [6], 0.23 L/kg; in series [8], 0.25 L/kg.

For `Cc1nc(=O)c(C#N)c(NCc2cccnc2)[nH]1` [PELRINONE], the clearance in series [1] came out at 28 mL/min/kg; in series [3] it was 11 mL/min/kg; in series [5], 13 mL/min/kg; in series [7], 4 mL/min/kg. This compound also gave a distribution volume (Vdss) in series [2] of 3.3 L/kg. In addition, the Vd was 1.2 L/kg in series [4], 0.85 L/kg in series [6] and 0.35 L/kg in series [8].

On to `N[C@@H](Cc1ccc(O)c(O)c1)C(=O)O` [LEVODOPA], for which the clearance in series [1] was found to be 109 mL/min/kg; in series [3], 19 mL/min/kg; in series [5], 17 mL/min/kg; in series [7], 23 mL/min/kg. In series [2], this compound yielded a Vdss of 9.8 L/kg. In addition, the Vd was 0.4 L/kg in series [4], 0.47 L/kg in series [6] and 1.7 L/kg in series [8].

As for `O=C1CN=C(c2ccccc2Cl)c2cc([N+](=O)[O-])ccc2N1` [CLONAZEPAM], the clearance in series [1] turned out to be 21 mL/min/kg; in series [3] it was 11 mL/min/kg; in series [5], 14 mL/min/kg; in series [7], 1.6 mL/min/kg. The Vdss in series [2] came to 3 L/kg. The Vd in series [4] is 1.6 L/kg; in series [6] it was 6.8 L/kg; in series [8], 5.5 L/kg.

`CC(=N)N1CC[C@H](SC2=C(C(=O)O)N3C(=O)[C@H]([C@@H](C)O)[C@H]3C2)C1`: the clearance was determined as 28 mL/min/kg in series [1], 4.9 mL/min/kg in series [3], 6.5 mL/min/kg in series [5] and 3.1 mL/min/kg in series [7]. The compound further displayed a Vdss in series [2] of 0.19 L/kg. The Vd in series [4] amounted to 0.22 L/kg; in series [6] it was 0.3 L/kg; in series [8], 0.18 L/kg.

In the case of `O=[N+]([O-])O[C@H]1CO[C@H]2[C@@H]1OC[C@H]2O[N+](=O)[O-]` [ISOSORBIDE DINITRATE], the clearance in series [1] was 118 mL/min/kg; in series [3], 180 mL/min/kg; in series [5], 59 mL/min/kg; in series [7], 3.6 mL/min/kg. Further, the Vdss stood at 4.9 L/kg in series [2] and 0.05 L/kg in series [8]. Besides, the Vd was 3 L/kg in series [4] and 1.7 L/kg in series [6].

Regarding `CC[C@]1(O)C[C@@H]2CN(CCc3c([nH]c4ccccc34)[C@@](C(=O)OC)(c3cc4c(cc3OC)N(C)[C@H]3[C@@](O)(C(=O)OC)[C@H](OC(C)=O)[C@]5(CC)C=CCN6CC[C@]43[C@@H]65)C2)C1` [VINBLASTINE], the clearance in series [1] came to 25 mL/min/kg; in series [3], 22 mL/min/kg; in series [5], 7 mL/min/kg; in series [7], 12 mL/min/kg. This compound also showed a Vdss in series [2] of 12 L/kg. The Vd in series [4] amounted to 2.3 L/kg; in series [6] it was 1.5 L/kg; in series [8], 24 L/kg.

With `Cc1cccnc1NS(=O)(=O)c1ccc(C#Cc2ccc(O)c(C(=O)O)c2)cc1` [SUSALIMOD], the clearance in series [1] is 62 mL/min/kg; in series [3] it was 20 mL/min/kg; in series [5] it was 2 mL/min/kg; in series [7], 0.09 mL/min/kg. The same compound yielded a Vdss in series [2] of 1.2 L/kg. The Vd was found to be 0.19 L/kg in series [4], 0.08 L/kg in series [6] and 0.12 L/kg in series [8].

On to `C#C[C@]1(O)CC[C@H]2[C@@H]3CCc4cc(O)ccc4[C@H]3CC[C@@]21C` [ETHINYL ESTRADIOL], for which the clearance in series [1] worked out at 64 mL/min/kg; in series [3] it was 25 mL/min/kg; in series [5], 17 mL/min/kg; in series [7] it was 5 mL/min/kg. The compound also gave a Vdss in series [2] of 73 L/kg. Further, the Vd in series [4] is 17 L/kg; in series [6] it was 6 L/kg; in series [8] it was 18 L/kg.

As usually defined, the clearance is the rate of elimination divided by the concentration. As a reminder, the Vdss is a proportionality between amount in the body and measured concentration, not a real space.
